Ki data for 10 molecules are collected here from US12492181B2, “Gem-disubstituted piperidine melanocortin subtype-2 receptor (MC2R) antagonists and uses thereof” (Crinetics Pharmaceuticals, Inc., priority 2019, dated 2025).

In this experiment the target is T1, hMC2 receptor (crude hMC2R membranes from CRE-bla-CHO-K1 cells stably expressing hMC2 receptor and hMRAP accessory protein) (Homo sapiens, UniProt Q01718).
T1 construct: crude membrane fractions
T1 sequence (Q01718 whole entry): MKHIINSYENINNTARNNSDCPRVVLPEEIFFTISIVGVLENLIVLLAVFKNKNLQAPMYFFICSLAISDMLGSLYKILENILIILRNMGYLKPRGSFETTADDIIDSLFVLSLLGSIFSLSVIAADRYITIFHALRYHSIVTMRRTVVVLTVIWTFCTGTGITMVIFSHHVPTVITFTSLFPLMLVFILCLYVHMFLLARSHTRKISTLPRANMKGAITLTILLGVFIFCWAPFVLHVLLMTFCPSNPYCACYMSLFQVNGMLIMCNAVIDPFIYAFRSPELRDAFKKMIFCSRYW
T1 sequence (Q8TCY5 whole entry partner): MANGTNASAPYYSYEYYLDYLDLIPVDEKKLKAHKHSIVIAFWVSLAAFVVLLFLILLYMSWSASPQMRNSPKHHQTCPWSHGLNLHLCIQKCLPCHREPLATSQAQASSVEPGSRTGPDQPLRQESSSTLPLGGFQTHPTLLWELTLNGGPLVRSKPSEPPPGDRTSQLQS
In words: hMC2 membrane binding assay ([125I]ACTH (1-39) Tyr23, SPA). The settings on record: displacement of 0.2 nM [125I]ACTH (1-39) Tyr23 from hMC2R membranes, 1.5 hours at room temperature; read-out: MC2R binding potency. The essentials:
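Crude membranes from CRE-bla-CHO-K1 cells stably co-expressing hMC2R and hMRAP, premixed with WGA PVT SPA beads in pH 7.4 HEPES buffer (5 mM MgCl2, 1 mM CaCl2, 0.20% BSA, protease inhibitors). Compounds compete with [125I]ACTH(1-39) Tyr23, read by scintillation. Ki from non-linear regression.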
For `COc1ccccc1-c1ccc(C2(C(=O)NC[C@H]3CCN3)CCN(c3ccc(C(F)(F)F)cc3C#N)CC2)cn1` [Compound 1-236, N-{[(2R)-azetidin-2-yl]methyl}-1-[2-cyano-4-(trifluoromethyl)phenyl]-4-[6-(2-methoxyphenyl)pyridin-3-yl]piperidine-4-carboxamide], the Ki was < 10 nM.

Consider `CCOc1ncccc1-c1ccc(C2(C(=O)NCCN(C)C)CCN(c3ccc(C(F)(F)F)cc3F)CC2)nn1` [Compound 1-335, N-[2-(dimethylamino)ethyl]-4-[6-(2-ethoxypyridin-3-yl)pyridazin-3-yl]-1-[2-fluoro-4-(trifluoromethyl)phenyl]piperidine-4-carboxamide], for which the Ki is < 10 nM.

For `CN(C)[C@@H](CO)CNC(=O)C1(c2ccc(-c3cccn3C)nc2)CCN(c2ccc(C(F)(F)F)cc2C#N)CC1` [Compound 1-275, 1-[2-cyano-4-(trifluoromethyl)phenyl]-N-[(2R)-2-(dimethylamino)-3-hydroxypropyl]-4-[6-(1-methyl-1H-pyrrol-2-yl)pyridin-3-yl]piperidine-4-carboxamide], the Ki is < 10 nM.

Turning to `Cc1ccc(F)cc1-c1ccc(C2(C(=O)N[C@@H]3CCN(C)C3)CCN(c3ccc(C(F)(F)F)cc3C#N)CC2)cn1` [Compound 1-99, 1-[2-cyano-4-(trifluoromethyl)phenyl]-4-[6-(5-fluoro-2-methylphenyl)pyridin-3-yl]-N-[(3R)-1-methylpyrrolidin-3-yl]piperidine-4-carboxamide], the Ki was < 10 nM.

In the case of `CN1CC[C@H](NC(=O)C2(c3ccc(-c4cccnc4C4CC4)nc3)CCN(c3ccc(C(F)(F)F)cc3C#N)CC2)C1` [Compound 1-180, 1-[2-cyano-4-(trifluoromethyl)phenyl]-4-{2′-cyclopropyl-[2,3′-bipyridin]-5-yl}-N-[(3S)-1-methylpyrrolidin-3-yl]piperidine-4-carboxamide], the Ki was < 10 nM.

For the molecule `CCOc1ccccc1-c1ccc(C2(C(=O)N[C@H]3CCN(C)C3)CCN(c3ccc(F)cc3C#N)CC2)cn1` [Compound 1-96, 1-(2-cyano-4-fluorophenyl)-4-[6-(2-ethoxyphenyl)pyridin-3-yl]-N-[(3S)-1-methylpyrrolidin-3-yl]piperidine-4-carboxamide], the Ki is < 10 nM.

For `CN1CC[C@H](NC(=O)C2(c3ccc(-c4cccn4C)nc3)CCN(c3ccc(C(F)(F)F)cc3F)CC2)C1` [Compound 1-173, 1-[2-fluoro-4-(trifluoromethyl)phenyl]-4-[6-(1-methyl-1H-pyrrol-2-yl)pyridin-3-yl]-N-[(3S)-1-methylpyrrolidin-3-yl]piperidine-4-carboxamide], the Ki is < 10 nM.

In the case of `Cn1cccc1-c1ccc(C2(NC(=O)[C@H]3CCNC3)CCN(c3ccc(C(F)(F)F)cc3C#N)CC2)cn1` [Compound 2-44, (3S)—N-{1-[2-cyano-4-(trifluoromethyl)phenyl]-4-[6-(1-methyl-1H-pyrrol-2-yl)pyridin-3-yl]piperidin-4-yl}pyrrolidine-3-carboxamide], the Ki is < 10 nM.

Regarding `CN1CC[C@@H](NC(=O)C2(c3ccc(-c4cc5ccccc5n4C)nc3)CCN(c3ccc(C(F)(F)F)cc3C#N)CC2)C1` [Compound 1-191, 1-[2-cyano-4-(trifluoromethyl)phenyl]-4-[6-(1-methyl-1H-indol-2-yl)pyridin-3-yl]-N-[(3R)-1-methylpyrrolidin-3-yl]piperidine-4-carboxamide], the Ki was 10 to 100 nM.

Consider `CN1CC[C@@H](NC(=O)C2(c3ccc(-c4cccc5cnn(C)c45)nc3)CCN(c3ccc(C(F)(F)F)cc3C#N)CC2)C1` [Compound 1-73, 1-[2-cyano-4-(trifluoromethyl)phenyl]-4-[6-(1-methyl-1H-indazol-7-yl)pyridin-3-yl]-N-[(3R)-1-methylpyrrolidin-3-yl]piperidine-4-carboxamide], for which the Ki was < 10 nM.
